{
  "source": "patent US10041085B2",
  "about": "“Plant type related protein, and coding gene and application thereof” (Cotton Research Institute, Chinese Academy of Agricultural …, priority 2013, dated 2018)",
  "type_in_all_cases": "in vivo, Gossypium hirsutum",
  "key": {"[1]": {"system": "cotton variety \"CRI 24\"", "test": "Response of cotton variety CRI 24 to brassinosteroids (hypocotyledonary axis length)", "conditions": "500 nM in liquid medium, cotyledon stage to five leaf stage, vs 0.2% ethanol control, average of 20 plants", "procedure": "(§1) The mutant pagoda1 and the cotton variety“CRI 24” were identified as below, respectively: • Test Group: cultivating cotton plants of the cotyledon stage in a liquid medium containing 500 nM brassinosteroids (Sigma) to the five leaf stage, to measure the length of its hypocotyledonary axis;\n(§2) Control Group: the same as the Test Group, except that brassinosteroids was replaced with an equal volume of an aqueous solution of 0.2% ethanol.\n(§3) The length measurements of hypocotyledonary axis of the processed plants from respective groups (an averaged measurement of 20 plants for each group) are shown in FIG. 2. […] For the cotton variety “CRI 24”, after the treatment with brassinosteroids, the hypocotyledonary axis was prolonged by only 16%."}, "[2]": {"system": "mutant pagoda1", "test": "Shaping of cotton by local application of brassinosteroids", "from_the_text": "Since brassinosteroids cannot be delivered for a long distance in a plant, a local application thereof may promote the growth of the applied part, without an impact on the far part."}, "[3]": {"system": "mutant pagoda1", "test": "Response of mutant pagoda1 to brassinosteroids (hypocotyledonary axis length)", "conditions": "500 nM in liquid medium, cotyledon stage to five leaf stage, vs 0.2% ethanol control, average of 20 plants", "procedure": "as §1, §2, §3"}},
  "data": [
    {"substance": "brassinosteroids", "values": [
      {"measurement": "hypocotyledonary axis prolonged after treatment with brassinosteroids", "setting": "[1]", "result": 16, "unit": "%"},
      {"measurement": "extension of the lateral branch after application to the lateral branch", "setting": "[2]; 500 nM applied to a lateral branch of a seedling of mutant pagoda1 (FIG. 4B)", "result": "significantly extended"},
      {"measurement": "growth of the top of the seedling after application to the top", "setting": "[2]; 500 nM applied to the top of a seedling of mutant pagoda1 (FIG. 4A)", "result": "significantly promoting the growth of the top of the seeding"},
      {"measurement": "hypocotyledonary axis prolonged after treatment with brassinosteroids", "setting": "[3]", "result": 270, "unit": "%"}
    ]}
  ]
}
